Assay results: US20260364080A1, “PYRAZOLO-PYRIMIDINONE COMPOUNDS FOR USE IN METHODS OF INHIBITING WEE1 A KINASE” (Acrivon Therapeutics, Inc., priority 2023, published 2026)
Where two headings read alike, the source gives them in different places.

Key:
[1] = biological target: T1, recombinant human Wee1A kinase (Homo sapiens, UniProt P30291); assay: Wee1A kinase binding assay (LanthaScreen Eu time-resolved FRET)
T1 construct: full length Wee1 kinase was expressed by baculovirus in insect cells; purchased Invitrogen PV3817; host or cells: insect cells (baculovirus)
In short: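 Full-length, baculovirus-expressed GST-tagged Wee1A (5 nM) was mixed with 2 nM Eu-anti-GST antibody, 30 nM kinase tracer 178 and compound (1% DMSO). Buffer was 50 mM HEPES pH 7.5, 10 mM MgCl2, 1 mM EGTA, 0.01% Brij-35, incubated 60 min at room temperature. TR-FRET 665/615 nm emission ratios from duplicates were curve-fitted.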

[2] = biological target: T2, Myt1 kinase (recombinant PMYT-1) (Homo sapiens, UniProt Q99640); assay: Myt1 kinase binding assay (LanthaScreen Eu Kinase Binding Assay)
T2 construct: full length PMYT-1 was expressed by baculovirus in insect cells; purchased Invitrogen A30984; host or cells: insect cells (baculovirus)
T2 sequence (Q99640 1-499): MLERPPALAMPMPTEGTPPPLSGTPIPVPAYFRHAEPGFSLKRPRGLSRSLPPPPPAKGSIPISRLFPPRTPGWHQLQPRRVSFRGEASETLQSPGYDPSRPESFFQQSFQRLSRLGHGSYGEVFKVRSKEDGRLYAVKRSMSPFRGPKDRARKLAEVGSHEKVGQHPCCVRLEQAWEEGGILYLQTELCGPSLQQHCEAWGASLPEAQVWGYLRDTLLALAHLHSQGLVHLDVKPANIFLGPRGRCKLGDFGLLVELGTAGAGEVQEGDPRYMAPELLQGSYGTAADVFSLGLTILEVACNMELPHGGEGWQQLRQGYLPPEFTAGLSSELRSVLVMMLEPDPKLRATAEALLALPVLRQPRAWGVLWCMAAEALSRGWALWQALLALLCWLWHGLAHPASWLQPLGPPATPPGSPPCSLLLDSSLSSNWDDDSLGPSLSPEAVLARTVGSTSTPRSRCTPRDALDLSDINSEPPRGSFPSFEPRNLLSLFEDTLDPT
In short: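 The binding affinity of compounds for Myt1 kinase was measured with a LanthaScreen Europium (Eu) Kinase Binding Assay, a time-resolved FRET format in which test compounds compete against a labeled kinase tracer, and the results were expressed as IC50 values describing compound binding to Myt1.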

[3] = biological target: T3, Wee1A kinase (CDK1 Tyr15 phosphorylation in ACHN renal cell carcinoma cells) (Homo sapiens, UniProt P30291); assay: High-content imaging of pCdk1 Y15, Wee1A kinase target engagement in ACHN cells; type: cell-based
T3 construct: pCDK1 Tyr15 immunofluorescence read-out
In short: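 ACHN cells exposed to compound for 4 h over 7–5,000 nM or 0.3–200 nM, then fixed and immunostained for pCDK1 Y15 with DAPI nuclear counterstain. The percentage of pCdk1 Y15 nucleus-positive cells relative to DMSO control was imaged per well; EC50 from dose-response curves.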

[4] = test system: ACHN cells; assay: Cell Titer Glo viability assay, ACHN cells; type: cell-based; settings: Homo sapiens, 144 h, absolute EC50
Method: Each of an ACHN renal cell carcinoma cell line (ATCC) and a DAOY medulloblastoma cell line, and an A427 lung cancer line were cultured in Minimum Essential Medium Eagle supplemented with 10% fetal calf serum (Sigma), 1% Penicillin-Streptomycin and 10 mM HEPES buffer (HyClone). Cell cultures were kept in a humidified incubator at 37 °C and 5% CO2. Cells were routinely tested for Mycoplasma contamination.
ACHN cells, DAOY cells, or A427 cells were seeded at a density of 400, 250, or 500 cells per well respectively, in tissue culture treated 384 well plates (Corning Costar). After overnight incubation, cells were treated with drugs at concentrations ranging from 17 to 10 000 nM. Viability compared to untreated control was assessed at 144 h using Cell Titer Glo assay 2.0 (Promega). […] “NT” means the compounds was not tested in the indicated cells.

[5] = 30 nM tracer 178, 5 nM Wee1A kinase, 2 nM Eu-labeled antibody, 60 minutes at room temperature, read-out: Wee1A kinase Binding IC50
[6] = 3 nM tracer 178, 2.5 nM PMYT-1, 1 nM Eu-labeled antibody, read-out: Myt1 kinase Binding IC50
[7] = 4 h treatment, nuclear positivity for pCdk1 Y15 vs DMSO control, read-out: CDK1 Tyr15 Phosphorylation EC50
[8] = Myt1 kinase Binding IC50, 3 nM tracer 178, 2.5 nM PMYT-1, 1 nM Eu-labeled antibody
[9] = read-out: CDK1 Tyr15 Phosphorylation EC50, 4 h treatment, nuclear positivity for pCdk1 Y15 vs DMSO control

T3 sequence (P30291 whole entry): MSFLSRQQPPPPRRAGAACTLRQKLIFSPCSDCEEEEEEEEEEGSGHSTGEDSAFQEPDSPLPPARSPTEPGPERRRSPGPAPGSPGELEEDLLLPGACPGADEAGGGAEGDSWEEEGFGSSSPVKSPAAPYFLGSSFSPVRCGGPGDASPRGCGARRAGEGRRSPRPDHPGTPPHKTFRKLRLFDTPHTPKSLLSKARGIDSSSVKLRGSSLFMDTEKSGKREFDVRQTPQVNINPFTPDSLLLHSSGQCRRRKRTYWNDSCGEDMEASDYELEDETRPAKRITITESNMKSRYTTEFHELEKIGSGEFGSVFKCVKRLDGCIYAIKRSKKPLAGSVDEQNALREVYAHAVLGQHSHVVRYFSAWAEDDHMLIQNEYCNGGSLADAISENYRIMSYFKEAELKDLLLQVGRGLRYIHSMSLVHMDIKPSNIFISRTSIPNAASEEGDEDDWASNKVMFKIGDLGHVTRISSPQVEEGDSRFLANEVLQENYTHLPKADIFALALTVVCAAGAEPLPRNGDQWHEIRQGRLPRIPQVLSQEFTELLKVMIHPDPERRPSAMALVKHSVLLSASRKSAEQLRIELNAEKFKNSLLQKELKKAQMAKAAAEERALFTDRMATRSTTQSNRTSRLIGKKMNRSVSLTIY
T1 sequence (P30291 whole entry): as above

Compound	IC50 [1, 5]	IC50 [2, 6]	EC50 [3, 7]	EC50 [4]	IC50 [1]	IC50 [2, 8]	EC50 [3, 9]
C=CCn1c(=O)c2cnc(Nc3ccc4c(cnn4C)c3)nc2n1-c1cccc(N[C@H]2CCN(C)C2)n1 [Compound 108, 1-{6-[(S)-1-methyl-3-pyrrolidinylamino]-2-pyridyl}-2-allyl-6-(1-methyl-1H-indazol-5-ylamino)-1,2-dihydro-3H-1,2,5,7-tetraazainden-3-one]	< 10 nM	20 to 100 nM	< 100 nM	100 to 500 nM			
C=CCn1c(=O)c2cnc(Nc3ccc4c(cnn4C)c3)nc2n1-c1cccc(N(C)C2CCNCC2)n1 [Compound 116, 1-[6-(N-methyl-N-4-piperidylamino)-2-pyridyl]-2-allyl-6-(1-methyl-1H-indazol-5-ylamino)-1,2-dihydro-3H-1,2,5,7-tetraazainden-3-one]				100 to 500 nM	< 10 nM	> 500 nM	< 100 nM
C=CCn1c(=O)c2cnc(Nc3ccc4c(cnn4C)c3)nc2n1-c1cccc(N(C)C2CCN(C)CC2)n1 [Compound 118, 1-{6-[N-methyl(1-methyl-4-piperidyl)amino]-2-pyridyl}-2-allyl-6-(1-methyl-1H-indazol-5-ylamino)-1,2-dihydro-3H-1,2,5,7-tetraazainden-3-one]				≤ 100 nM	< 10 nM	> 500 nM	< 100 nM
C=CCn1c(=O)c2cnc(Nc3ccc4c(cnn4C)c3)nc2n1-c1cccc(N[C@@H]2CCN(CC)C2)n1 [Compound 119, 1-(6-{[(3R)-1-ethylpyrrolidin-3-yl]amino}pyridin-2-yl)-6-[(1-methyl-1H-indazol-5-yl)amino]-2-(prop-2-en-1-yl)-1H,2H,3H-pyrazolo[3,4-d]pyrimidin-3-one]	< 10 nM	100 to 500 nM	< 100 nM	≤ 100 nM			
C=CCn1c(=O)c2cnc(Nc3ccc(F)c(C)c3)nc2n1-c1cccc(NC2CCN(C)CC2)n1 [Compound 140, 2-allyl-6-(4-fluoro-3-toluidino)-1-[6-(1-methyl-4-piperidylamino)-2-pyridyl]-1,2-dihydro-3H-1,2,5,7-tetraazainden-3-one]	< 10 nM	100 to 500 nM	< 100 nM	≤ 100 nM			
C=CCn1c(=O)c2cnc(Nc3cnn(CCC)c3)nc2n1-c1cccc(OC2CCN(C)CC2)n1 [Compound 180, 2-allyl-1-[6-(1-methyl-4-piperidyloxy)-2-pyridyl]-6-(1-propyl-4-pyrazolylamino)-1,2-dihydro-3H-1,2,5,7-tetraazainden-3-one]	< 10 nM	100 to 500 nM	< 100 nM	≤ 100 nM			
C=CCn1c(=O)c2cnc(Nc3ccc(OCC(F)(F)F)c(C)c3)nc2n1-c1cccc(NC2CCN(C)CC2)n1 [Compound 181, 2-allyl-1-[6-(1-methyl-4-piperidylamino)-2-pyridyl]-6-[4-(2,2,2-trifluoroethoxy)-3-toluidino]-1,2-dihydro-3H-1,2,5,7-tetraazainden-3-one]	< 10 nM	100 to 500 nM	< 100 nM	≤ 100 nM			
C=CCn1c(=O)c2cnc(Nc3cc(C)nc(C)c3)nc2n1-c1cccc(OC2CCN(C)CC2)n1 [Compound 199, 6-[(2,6-dimethylpyridin-4-yl)amino]-1-{6-[(1-methylpiperidin-4-yl)oxy]pyridin-2-yl}-2-(prop-2-en-1-yl)-1H,2H,3H-pyrazolo[3,4-d]pyrimidin-3-one]	< 10 nM	100 to 500 nM	< 100 nM	100 to 500 nM			
C=CCn1c(=O)c2cnc(Nc3ccc4c(cnn4C)c3)nc2n1-c1cccc(OC2CCN(C)CC2)c1 [Compound 220, 2-allyl-6-(1-methyl-1H-indazol-5-ylamino)-1-[m-(1-methyl-4-piperidyloxy)phenyl]-1,2-dihydro-3H-1,2,5,7-tetraazainden-3-one]	< 10 nM	100 to 500 nM	< 100 nM	≤ 100 nM			
C=CCn1c(=O)c2cnc(Nc3ccc4c(cnn4C)c3)nc2n1-c1cccc(NC2CCN(C)CC2)c1 [Compound 226, 2-allyl-6-(1-methyl-1H-indazol-5-ylamino)-1-[m-(1-methyl-4-piperidylamino)phenyl]-1,2-dihydro-3H-1,2,5,7-tetraazainden-3-one]	< 10 nM	> 500 nM	< 100 nM	100 to 500 nM			

More lines, now with the values ahead:

IC50 [1, 5]	IC50 [2, 6]	EC50 [3, 7]	EC50 [4]	IC50 [1]	IC50 [2, 8]	EC50 [3, 9]	Compound
< 10 nM	100 to 500 nM	< 100 nM	100 to 500 nM				C=CCn1c(=O)c2cnc(Nc3ccc4c(cnn4C)c3)nc2n1-c1cccc(O[C@@H]2CCCNC2)n1 [Compound 103, 6-[(1-Methyl-1H-indazol-5-yl)amino]-1-{6-[(3R)-piperidin-3-yloxy]pyridin-2-yl}-2-(prop-2-en-1-yl)-1H,2H,3H-pyrazolo[3,4-d]pyrimidin-3-one; bis(trifluoroacetic acid)]
< 10 nM	20 to 100 nM	500 to 1000 nM	> 1000 nM				C=CCn1c(=O)c2cnc(Nc3ccnc(C)c3)nc2n1-c1cccc(OC2CCNCC2)n1 [Compound 113, 2-allyl-6-(2-methyl-4-pyridylamino)-1-[6-(4-piperidyloxy)-2-pyridyl]-1,2-dihydro-3H-1,2,5,7-tetraazainden-3-one]
< 10 nM	100 to 500 nM	100 to 500 nM	500 to 1000 nM				C=CCn1c(=O)c2cnc(Nc3ccc(OC)c(C)c3)nc2n1-c1cccc(NC2CCNCC2)n1 [Compound 127, 2-allyl-6-(4-methoxy-3-toluidino)-1-[6-(4-piperidylamino)-2-pyridyl]-1,2-dihydro-3H-1,2,5,7-tetraazainden-3-one]
< 10 nM	100 to 500 nM	100 to 500 nM	100 to 500 nM				C=CCn1c(=O)c2cnc(Nc3ccc(OCC(F)(F)F)cc3)nc2n1-c1cccc(NC2CCN(C)CC2)n1 [Compound 139, 2-allyl-1-[6-(1-methyl-4-piperidylamino)-2-pyridyl]-6-[p-(2,2,2-trifluoroethoxy)phenylamino]-1,2-dihydro-3H-1,2,5,7-tetraazainden-3-one]
			100 to 500 nM	< 10 nM	> 500 nM	100 to 500 nM	C=CCn1c(=O)c2cnc(Nc3ccc(Cl)cc3)nc2n1-c1cccc(N(C)C2CCN(C)CC2)n1 [Compound 157, 6-[(4-chlorophenyl)amino]-1-{6-[methyl(1-methylpiperidin-4-yl)amino]pyridin-2-yl}-2-(prop-2-en-1-yl)-1H,2H,3H-pyrazolo[3,4-d]pyrimidin-3-one]
			> 1000 nM	< 10 nM	> 500 nM	> 1000 nM	C=CCn1c(=O)c2cnc(Nc3cnn(C)c3)nc2n1-c1cccc(O[C@H]2CN3CCC2CC3)n1 [Compound 172, 1-{6-[(3R)-1-azabicyclo[2.2.2]octan-3-yloxy]pyridin-2-yl}-6-[(1-methyl-1H-pyrazol-4-yl)amino]-2-(prop-2-en-1-yl)-1H,2H,3H-pyrazolo[3,4-d]pyrimidin-3-one]
< 10 nM	100 to 500 nM	< 100 nM	≤ 100 nM				C=CCn1c(=O)c2cnc(Nc3cccc(C)c3)nc2n1-c1cccc(NC2CCN(C)CC2)n1 [Compound 188, 2-allyl-1-[6-(1-methyl-4-piperidylamino)-2-pyridyl]-6-m-toluidino-1,2-dihydro-3H-1,2,5,7-tetraazainden-3-one]
